Laboratory results reported in publication PMC8284453 (Antimicrobial Agents and Chemotherapy, 2021).
In brackets after ≈: the same amount, converted by molar mass. Several values for one entry are separate records, joined by “and”; a condition that tells them apart may be missing. Equal entries are not always repeated. Where two headings read alike, the source gives them in different places.

How the values were obtained:
[1] = system: K. pneumoniae ATCC BAA-1705 (KPC-2); experiment: 24-h time-kill assay; type: cell-based; conditions: Klebsiella pneumoniae, ATCCBAA1705; lowest concentration with ≥3-log10 CFU/ml reduction at 24 h; read-out: MBC
How it was run: (§1)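 Bacteria at 5 × 10^5 CFU/ml in CAMHB, incubated at 37°C with shaking at 200 rpm. Viable counts determined at 0, 2, 4, 6, 8 and 24 h by 0.5 log10 serial dilution with overnight regrowth; quantification limit 2 log10 CFU/ml.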

[2] = system: E. cloacae ECL01 (TEM-72, ACT-1, P99AmpC); experiment: 24-h time-kill assay; type: cell-based; conditions: Enterobacter cloacae; lowest concentration with ≥3-log10 CFU/ml reduction at 24 h; read-out: MBC
How it was run: as §1

E. coli ESBL4 (CTX-M-15) [3] = experiment: 24-h time-kill assay; type: cell-based
How it was run: as §1

[4] = system: K. pneumoniae 752286 (OXA-48); experiment: 24-h time-kill assay; type: cell-based; conditions: Klebsiella pneumoniae; lowest concentration with ≥3-log10 CFU/ml reduction at 24 h; read-out: MBC
How it was run: as §1

[5] = system: Enterobacterales expressing class C cephalosporinases; experiment: organism not typed
[6] = system: K. pneumoniae 752286 (OXA-48); experiment: Broth microdilution MIC; type: cell-based; conditions: Klebsiella pneumoniae
[7] = system: K. pneumoniae ATCC BAA-1705 (KPC-2); experiment: Broth microdilution MIC; type: cell-based; conditions: Klebsiella pneumoniae, ATCCBAA1705
[8] = system: Enterobacterales expressing class C cephalosporinases
E. coli ESBL4 (CTX-M-15) [9] = experiment: Broth microdilution MIC; type: cell-based; conditions: Escherichia coli
[10] = system: Enterobacterales expressing class D oxacillinases (OXA-48/48-like); experiment: organism not typed; type: cell-based, E. coli, K. pneumoniae
[11] = 25 isolates, BLI fixed at 4 μg/ml, AMC 2:1

With C[C@@H](O)[C@H]1C(=O)N2C(C(=O)O)=C(SC3CN(C4=NCCS4)C3)[C@H](C)[C@H]12 [Tebipenem] the MBC [1] was 32 µg/mL (≈ 83.4 µM), the MBC [2] was 0.25 µg/mL (≈ 0.652 µM) and the MBC (E. coli ESBL4 (CTX-M-15) [3]; Escherichia coli, lowest concentration with ≥3-log10 CFU/ml reduction at 24 h, read-out: MBC) was 0.06 µg/mL (≈ 0.156 µM). For the same molecule, the “outcome of 24-h time-kill assay” value (E. coli ESBL4 (CTX-M-15) [3]; Fig. 3a, CTB 2 μg/ml with BLI at 4 μg/ml, CTB alone 8 μg/ml, amoxicillin 8/clavulanic acid 4 μg/ml, penems 2 μg/ml) was “bactericidal activity”, the MBC [4] was > 32 µg/mL and the MIC50 [5] was 0.06 µg/mL (≈ 0.156 µM). For the same molecule, the MIC90 [5] was 0.5 µg/mL (≈ 1.3 µM), the MIC [6] was 16 µg/mL (≈ 41.7 µM) and the MIC [7] was 32 µg/mL (≈ 83.4 µM). The MIC ([8]; C. freundii 134390 (AmpC, TEM-1)) was 0.03 µg/mL (≈ 0.0782 µM), the MIC ([8]; E. aerogenes 110099 (AmpC, SHV-12)) was 0.12 µg/mL (≈ 0.313 µM) and the MIC ([8]; E. aerogenes 111707 (AmpC, TEM-1)) was 0.03 µg/mL (≈ 0.0782 µM). The MIC ([8]; E. aerogenes 111902 (AmpC, TEM-1)) was 0.12 µg/mL (≈ 0.313 µM), the MIC ([8]; E. coli 128 (AmpC, SHV-12, TEM-1, Toho-2)) was ≤ 0. 016 μg/ml and the MIC ([8]; E. coli 3102 (AmpC, CTX-M-15, TEM-1)) was ≤ 0. 016 μg/ml. For the same molecule, the MIC ([8]; E. coli CH1 (AmpC, CTX-M-15, SHV-1, SHV-5, TEM-1)) was 0.06 µg/mL (≈ 0.156 µM), the MIC ([8]; E. coli EC469 (AmpC, SHV-12, TEM-1)) was ≤ 0. 016 μg/ml and the MIC ([8]; E. coli J53 (AmpC, SHV-5, TEM-1)) was ≤ 0. 016 μg/ml. The MIC ([8]; E. coli SI-P026TC (CMY-2, TEM-1)) was 0.12 µg/mL (≈ 0.313 µM), the MIC ([8]; E. coli SI-PO26 (AmpC, CMY-2, TEM-1)) was 0.03 µg/mL (≈ 0.0782 µM) and the MIC ([8]; K. pneumoniae 129032 (MOX-2, SHV-12, TEM-1)) was 0.03 µg/mL (≈ 0.0782 µM). It also gave an MIC ([8]; K. pneumoniae 178279 (AmpC, SHV-12, TEM-1)) of 0.03 µg/mL (≈ 0.0782 µM), an MIC ([8]; K. pneumoniae 212027 (AmpC, FOX-5, TEM-1)) of 0.03 µg/mL (≈ 0.0782 µM) and an MIC ([8]; K. pneumoniae 217917 (CMY-2, TEM-1)) of 0.06 µg/mL (≈ 0.156 µM). For the same molecule, the MIC ([8]; K. pneumoniae 301313 (AmpC, SHV-12, TEM-1)) was 0.06 µg/mL (≈ 0.156 µM), the MIC ([8]; K. pneumoniae 398845 (CMY-2, SHV-12, TEM-1)) was 0.03 µg/mL (≈ 0.0782 µM) and the MIC ([8]; K. pneumoniae SI-F100 (CMY-2, SHV-5, TEM-1)) was ≤ 0. 016 μg/ml. The MIC ([8]; P. mirabilis SI-F014 (AmpC, TEM-72)) was 2 µg/mL (≈ 5.22 µM), the MIC ([8]; S. marcescens 132253 (AmpC, CTX-M-3, OXA-1, SHV-12, TEM-1)) was 0.5 µg/mL (≈ 1.3 µM) and the MIC ([8]; S. marcescens 134434 (AmpC, SHV-12, TEM-1)) was 0.5 µg/mL (≈ 1.3 µM). For the same molecule, the MIC ([8]; S. marcescens 142397 (AmpC, SHV-7, TEM-1)) was 0.25 µg/mL (≈ 0.652 µM), the MIC ([8]; S. marcescens 156212 (AmpC, SHV-12, TEM-1)) was 0.25 µg/mL (≈ 0.652 µM) and the MIC ([8]; S. marcescens 192478 (AmpC, SHV-12, TEM-1)) was 0.12 µg/mL (≈ 0.313 µM). For the same molecule, the MIC ([8]; S. marcescens 218068 (AmpC, SHV-7, TEM-1)) was 0.25 µg/mL (≈ 0.652 µM), the MIC (E. coli ESBL4 (CTX-M-15) [9]) was ≤ 0.06 µg/mL and the MIC50 [10, 11] was 4 µg/mL and 8 µg/mL. For the same molecule, the MIC90 [10, 11] was 16 µg/mL and 32 µg/mL, the MIC ([10]; E. coli 664507 (OXA-48)) was 4 µg/mL (≈ 10.4 µM) and the MIC ([10]; E. coli 664516 (OXA-48)) was 8 µg/mL (≈ 20.9 µM). The MIC ([10]; E. coli 664520 (OXA-48)) was 4 µg/mL (≈ 10.4 µM), the MIC ([10]; E. coli 664522 (OXA-48)) was 8 µg/mL (≈ 20.9 µM) and the MIC ([10]; E. coli 664523 (OXA-48)) was 4 µg/mL (≈ 10.4 µM). It also gave an MIC ([10]; E. coli 664524 (OXA-48)) of 4 µg/mL (≈ 10.4 µM), an MIC ([10]; E. coli 664525 (OXA-48)) of 8 µg/mL (≈ 20.9 µM) and an MIC ([10]; E. coli 664526 (OXA-48)) of 4 µg/mL (≈ 10.4 µM). It also gave an MIC ([10]; E. coli 664528 (OXA-48)) of 4 µg/mL (≈ 10.4 µM), an MIC ([10]; E. coli 787112 (OXA-48)) of 8 µg/mL (≈ 20.9 µM) and an MIC ([10]; E. coli SI-422 (OXA-48)) of 1 µg/mL (≈ 2.61 µM). For the same molecule, the MIC ([10]; E. coli VER (OXA-48)) was 1 µg/mL (≈ 2.61 µM), the MIC ([10]; K. pneumoniae 6299 (OXA-163)) was 4 µg/mL (≈ 10.4 µM) and the MIC ([10]; K. pneumoniae 515746 (OXA-48), first line) was 1 µg/mL (≈ 2.61 µM). For the same molecule, the MIC ([10]; K. pneumoniae 515746 (OXA-48), second line) was 0.5 µg/mL (≈ 1.3 µM), the MIC ([10]; K. pneumoniae 664438 (OXA-48)) was 8 µg/mL (≈ 20.9 µM) and the MIC ([10]; K. pneumoniae 664439 (OXA-48)) was 4 µg/mL (≈ 10.4 µM). The MIC ([10]; K. pneumoniae 664509 (OXA-48)) was ≥ 64 µg/mL and the MIC ([10]; K. pneumoniae 664518 (OXA-48)) was 4 µg/mL (≈ 10.4 µM).
